Data as given in patent US20260199323A1, “LIGAND COMPOUNDS FOR E3 UBIQUITIN LIGASE, PROTEIN DEGRADERS DEVELOPED ON BASIS OF LIGAND COMPOUNDS, AND USES THEREOF” (GLUETACS THERAPEUTICS (SHANGHAI) CO., LTD., priority 2021, published 2026).
Blank lines part the entries; values can stand above or below the compound they belong to.

Tests used:
NCI-H1975 = test: CCK-8 tumor cell proliferation, NCI-H1975; type: cell-based, Human; details: Table 11, designed based on EGFR inhibitors; 96 h
Description: (§1) The tumor cells used herein were cultured in a cell culture medium listed in table 4 at 37° C. in an incubator with 5% CO2. Prior to experimentation, all cells used were correctly identified by STR profiling, and tested negative for mycoplasma through routine screenings.
(§2) IC50 values of the compounds of the present disclosure (including the compounds in Tables 1 and 3, and compounds of examples) were measured using the Meilun Cell Counting Kit-8 kit from Dalian Meilun Biotech Co., Ltd. Assay details are as follows: tumor cells were seeded in a 96-well plate at a density listed in Table 5. After 24 h, 100 μL of the inoculated cells were treated with 0.5 μL of the compounds of the present disclosure (including the compounds in Tables 1 and 3, and compounds of examples) at 10 different successively decreasing concentrations (starting at the highest concentration of 10 μM; 5-fold serial dilutions). After the cells were treated with the compounds of the present disclosure for a period of time, the cell viability detection reagent was added to the culture medium for cell viability assessment according to the instructions provided with the CCK-8 kit. […] The growth inhibition of the compounds of the present disclosure on cells was plotted by Prism Graphpad software, and the IC50 values of the compounds of the present disclosure were calculated therefrom.

CAL-62 = test: CCK-8 tumor cell proliferation, CAL-62; type: cell-based, Human; parameters: IC50 for inhibiting the proliferation of tumor cells, CAL-62: scale not given here; details: Table 11, designed based on EGFR inhibitors; 72 h
Procedure, shortened: (§3)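 Proliferation was measured by CCK-8. Plated cells received compound 24 h later at ten 5-fold dilutions beginning at 10 μM.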

CCRF-CEM = test: CCK-8 tumor cell proliferation, CCRF-CEM; type: cell-based, Human; details: Homo sapiens; Table 18, FAK inhibitor based; CCRF-CEM; read-out: IC50 inhibiting proliferation of tumor cells, CCRF-CEM
Procedure, shortened: as §3

MDA-MB-231 = test: CCK-8 tumor cell proliferation, MDA-MB-231; type: cell-based, Human; details: Homo sapiens; Table 18, FAK inhibitor based; MDA-MB-231; read-out: IC50 inhibiting proliferation of tumor cells, MDA-MB-231
Procedure, shortened: as §3

MM.1S = test: CCK-8 tumor cell proliferation, MM.1S; type: cell-based; details: Homo sapiens, MM1.S; Table 18, FAK inhibitor based; MM.1S; read-out: IC50 inhibiting proliferation of tumor cells, MM.1S
Description: as §1, §2

Mino = test: CCK-8 tumor cell proliferation, Mino; type: cell-based, Human; details: Homo sapiens; Table 18, FAK inhibitor based; Mino; read-out: IC50 inhibiting proliferation of tumor cells, Mino
Procedure, shortened: as §3

Vcap = test: CCK-8 tumor cell proliferation, Vcap; type: cell-based, Human; details: Homo sapiens, VCaP, Table 18, FAK inhibitor based; Vcap; read-out: IC50 inhibiting proliferation of tumor cells, Vcap
Description: as §1, §2

SW620 = test: CCK-8 tumor cell proliferation, SW620; type: cell-based, Human; details: Homo sapiens, SW-620; Table 18, FAK inhibitor based; SW620; read-out: IC50 inhibiting proliferation of tumor cells, SW620
Procedure, shortened: as §3

PC-9 = test: CCK-8 tumor cell proliferation, PC-9; type: cell-based, Human; details: Homo sapiens; Table 18, FAK inhibitor based; PC-9; read-out: IC50 inhibiting proliferation of tumor cells, PC-9

IC50 for inhibiting the proliferation of tumor cells, H1975 (NCI-H1975): A+
IC50 for inhibiting the proliferation of tumor cells, CAL-62 (CAL-62): A+
Compound: COc1cc(N2CCC(N(C)Cc3ccc4c(c3)CN(C3CCC(=O)NC3=O)C4=O)CC2)c(C)cc1Nc1ncc(Br)c(Nc2ccc3nccnc3c2P(C)(C)=O)n1 (centres unmarked) [GT-03924, 3-(5-(((1-(4-((5-bromo-4-((5-(dimethylphosphoryl)quinoxalin-6-yl)amino)pyrimidin-2-yl)amino)-5-methoxy-2-methylphenyl)piperidin-4-yl)(methyl)amino)methyl)-1-oxoisoindolin-2-yl)piperidine-2,6-dione]

IC50 for inhibiting the proliferation of tumor cells, H1975 (NCI-H1975): A+
Compound: COc1cc(N2CCC(N(C)Cc3cc4c(cc3F)C(=O)N(C3CCC(=O)NC3=O)C4)CC2)c(C)cc1Nc1ncc(Br)c(Nc2ccc3nccnc3c2P(C)(C)=O)n1 (centres unmarked) [GT-03926, 3-(5-(((1-(4-((5-bromo-4-((5-(dimethylphosphoryl)quinoxalin-6-yl)amino)pyrimidin-2-yl)amino)-5-methoxy-2-methylphenyl)piperidin-4-yl)(methyl)amino)methyl)-6-fluoro-1-oxoisoindolin-2-yl)piperidine-2,6-dione]

IC50 (CCRF-CEM): 100 to 500 nM
IC50 (MDA-MB-231): < 50 nM
IC50 (Mino): 100 to 500 nM
IC50 (Vcap): 100 to 500 nM
IC50 (SW620): 500 to 1000 nM
IC50 (PC-9): 1000 to 5000 nM
Compound: CN(c1nccnc1CNc1nc(Nc2ccc(N3CCC(N4CCN(Cc5ccc6c(c5)CN(C5CCC(=O)NC5=O)C6=O)CC4)CC3)cc2)ncc1C(F)(F)F)S(C)(=O)=O (centres unmarked) [GT-03706, N-(3-(((2-((4-(4-(4-((2-(2,6-dioxopiperidin-3-yl)-1-oxoisoindolin-5-yl)methyl)piperazin-1-yl)piperidin-1-yl)phenyl)amino)-5-(trifluoromethyl)pyrimidin-4-yl)amino)methyl)pyrazin-2-yl)-N-methylmethanesulfonamide]

The next lines start with the compound.

Compound: CN(Cc1ccc2c(c1F)CN(C1CCC(=O)NC1=O)C2=O)C1CCN(c2ccc(Nc3ncc4nc(Nc5ccccc5)n(C5CCCC5)c4n3)cc2)CC1 (centres unmarked) [GT-03858, 3-(5-(((1-(4-((9-cyclopentyl-8-(phenylamino)-9H-purin-2-yl)amino)phenyl)piperidin-4-yl)(methyl)amino)methyl)-4-fluoro-1-oxoisoindolin-2-yl)piperidine-2,6-dione]
IC50 for inhibiting the proliferation of tumor cells, H1975 (NCI-H1975): A+

Compound: CNC(=O)c1ccccc1Nc1cc(Nc2ccc(N3CCN(Cc4cc5c(cc4F)C(=O)N(C4CCC(=O)NC4=O)C5)CC3)cc2OC)ncc1C(F)(F)F (centres unmarked) [GT-03716, 2-((2-((4-(4-((2-(2,6-dioxopiperidin-3-yl)-6-fluoro-1-oxoisoindolin-5-yl)methyl)piperazin-1-yl)-2-methoxyphenyl)amino)-5-(trifluoromethyl)pyridin-4-yl)amino)-N-methylbenzamide]
IC50 (CCRF-CEM): < 50 nM
IC50 (MDA-MB-231): < 50 nM
IC50 (MM.1S): < 50 nM
IC50 (Mino): < 50 nM
IC50 (Vcap): < 50 nM
IC50 (SW620): < 50 nM
IC50 (PC-9): 1000 to 5000 nM

Compound: COc1cc(N2CCC(N(C)Cc3ccc4c(c3F)CN(C3CCC(=O)NC3=O)C4=O)CC2)c(C)cc1Nc1ncc(Br)c(Nc2ccc3nccnc3c2P(C)(C)=O)n1 (centres unmarked) [GT-03925, 3-(5-(((1-(4-((5-bromo-4-((5-(dimethylphosphoryl)quinoxalin-6-yl)amino)pyrimidin-2-yl)amino)-5-methoxy-2-methylphenyl)piperidin-4-yl)(methyl)amino)methyl)-4-fluoro-1-oxoisoindolin-2-yl)piperidine-2,6-dione]
IC50 for inhibiting the proliferation of tumor cells, H1975 (NCI-H1975): A+
IC50 for inhibiting the proliferation of tumor cells, CAL-62 (CAL-62): A+

Compound: O=C1CCC(N2Cc3cc(CN4CCN(c5ccc(-c6ccc7c(c6)C(=O)N(C(C(=O)Nc6nccs6)c6cc(F)ccc6O)C7)cc5)CC4)ccc3C2=O)C(=O)N1 (centres unmarked) [GT-03503, 2-(6-(4-(4-((2-(2,6-dioxopiperidin-3-yl)-1-oxoisoindolin-5-yl)methyl)piperazin-1-yl)phenyl)-1-oxoisoindolin-2-yl)-2-(5-fluoro-2-hydroxyphenyl)-N-(thiazol-2-yl)acetamide]
IC50 for inhibiting the proliferation of tumor cells, H1975 (NCI-H1975): A+
